In brackets after ≈: the same amount, converted by molar mass. Where two headings read alike, the source gives them in different places.
Tests used:
[1] = test system: C. difficile; assay: MIC by broth microdilution against C. difficile strains; type: cell-based, Clostridioides difficile; settings: Clostridioides difficile; for MIC: Table 9, read-out: MIC
[2] = test system: MRSA (NRS70, NRS119); assay: MIC against MRSA strains; type: cell-based, Staphylococcus aureus; settings: Staphylococcus aureus, read-out: MIC
[3] = test system: Fusobacterium nucleatum; assay: MIC against gut bacterium Fusobacterium nucleatum; type: cell-based; settings: Fusobacterium nucleatum, Fusobacterium nucleatum strain HM-992, read-out: MIC
[4] = test system: E. faecium NCTC7171; assay: MIC against E. faecium; type: cell-based, Enterococcus faecium; settings: Enterococcus faecium; E. faecium NCTC7171; Table 1; read-out: MIC
[5] = test system: Lactobacillus reuteri; assay: MIC against gut bacterium Lactobacillus reuteri; type: cell-based

SMILES: Cc1ncc([N+](=O)[O-])n1CCO [MTZ, metronidazole, reference compound]
- MIC ([1]; C. difficile NR-32883): 0.5 µg/mL (≈ 2.92 µM)
- MIC ([1]; C. difficile NR-32884): 0.5 µg/mL (≈ 2.92 µM)
- MIC ([1]; C. difficile NR-32885): 0.5 µg/mL (≈ 2.92 µM)
- MIC ([1]; C. difficile NR-32886): 0.5 µg/mL (≈ 2.92 µM)
- MIC ([1]; C. difficile NR-32887): 2 µg/mL (≈ 11.7 µM)
- MIC ([1]; C. difficile NR-32888): 0.5 µg/mL (≈ 2.92 µM)
- MIC ([1]; C. difficile NR-32889): 2 µg/mL (≈ 11.7 µM)
- MIC ([1]; C. difficile NR-32890): 0.5 µg/mL (≈ 2.92 µM)
- MIC ([1]; C. difficile NR-32891): 0.25 µg/mL (≈ 1.46 µM)
- MIC ([1]; C. difficile NR-32892): 0.5 µg/mL (≈ 2.92 µM)
- MIC ([1]; C. difficile NR-32895): 1 µg/mL (≈ 5.84 µM)
- MIC ([1]; C. difficile NR-32896): 1 µg/mL (≈ 5.84 µM)
- MIC ([1]; C. difficile NR-32897): 0.5 µg/mL (≈ 2.92 µM)
- MIC ([1]; C. difficile NR-32900): 1 µg/mL (≈ 5.84 µM)
- MIC ([1]; C. difficile NR-32903): 0.5 µg/mL (≈ 2.92 µM)
- MIC ([1]; C. difficile NR-32904): 0.5 µg/mL (≈ 2.92 µM)
- MIC ([1]; C. difficile NR-49277): 0.5 µg/mL (≈ 2.92 µM)
- MIC ([1]; C. difficile NR-49278): 0.5 µg/mL (≈ 2.92 µM)
- MIC ([1]; C. difficile NR-49279): 1 µg/mL (≈ 5.84 µM)
- MIC ([1]; C. difficile NR-49280): 1 µg/mL (≈ 5.84 µM)
- MIC ([1]; C. difficile NR-49281): 1 µg/mL (≈ 5.84 µM)
- MIC ([1]; C. difficile NR-49282): 0.5 µg/mL (≈ 2.92 µM)
- MIC ([1]; C. difficile NR-49283): 0.5 µg/mL (≈ 2.92 µM)
- MIC ([1]; C. difficile NR-49284): 0.5 µg/mL (≈ 2.92 µM)
- MIC ([1]; C. difficile NR-49285): 0.5 µg/mL (≈ 2.92 µM)
- MIC ([1]; C. difficile NR-49286): 1 µg/mL (≈ 5.84 µM)
- MIC ([1]; C. difficile NR-49287): 0.5 µg/mL (≈ 2.92 µM)
- MIC ([1]; C. difficile NR-49288): 0.5 µg/mL (≈ 2.92 µM)
- MIC ([1]; C. difficile NR-49289): 0.5 µg/mL (≈ 2.92 µM)
- MIC ([1]; C. difficile NR-49290): 1 µg/mL (≈ 5.84 µM)
- MIC ([1]; C. difficile NR-49291): 1 µg/mL (≈ 5.84 µM)
- MIC ([1]; C. difficile NR-49293): 0.5 µg/mL (≈ 2.92 µM)
- MIC ([1]; C. difficile NR-49295): 0.5 µg/mL (≈ 2.92 µM)
- MIC ([1]; C. difficile NR-49296): 0.5 µg/mL (≈ 2.92 µM)
- MIC ([1]; C. difficile NR-49297): 0.5 µg/mL (≈ 2.92 µM)
- MIC ([1]; C. difficile NR-49298): 1 µg/mL (≈ 5.84 µM)
- MIC ([1]; C. difficile NR-49299): 0.5 µg/mL (≈ 2.92 µM)
- MIC ([1]; C. difficile NR-49300): 0.5 µg/mL (≈ 2.92 µM)
- MIC ([1]; C. difficile NR-49301): 0.5 µg/mL (≈ 2.92 µM)
- MIC ([1]; C. difficile NR-49303): 0.5 µg/mL (≈ 2.92 µM)
- MIC ([1]; C. difficile NR-49304): 0.5 µg/mL (≈ 2.92 µM)
- MIC ([1]; C. difficile NR-49306): 0.5 µg/mL (≈ 2.92 µM)
- MIC ([1]; C. difficile NR-49307): 0.5 µg/mL (≈ 2.92 µM)
- MIC ([1]; C. difficile NR-49308): 0.5 µg/mL (≈ 2.92 µM)
- MIC ([1]; C. difficile NR-49309): 0.25 µg/mL (≈ 1.46 µM)
- MIC ([1]; C. difficile NR-49311): 0.5 µg/mL (≈ 2.92 µM)
- MIC ([1]; C. difficile NR-49312): 0.5 µg/mL (≈ 2.92 µM)
- MIC ([1]; C. difficile NR-49313): 0.5 µg/mL (≈ 2.92 µM)
- MIC ([1]; C. difficile NR-49314): 0.5 µg/mL (≈ 2.92 µM)
- MIC ([1]; C. difficile NR-49315): 0.5 µg/mL (≈ 2.92 µM)
- MIC ([1]; C. difficile NR-49316): 0.5 µg/mL (≈ 2.92 µM)
- MIC ([1]; C. difficile NR-49317): 0.5 µg/mL (≈ 2.92 µM)
- MIC ([1]; C. difficile NR-49319): 0.5 µg/mL (≈ 2.92 µM)
- MIC ([1]; C. difficile NR-49320): 0.5 µg/mL (≈ 2.92 µM)
- MIC ([1]; C. difficile NR-49321): 0.5 µg/mL (≈ 2.92 µM)
- MIC ([1]; C. difficile NR-49323): 0.25 µg/mL (≈ 1.46 µM)
- MIC ([1]; C. difficile NR-49324): 0.25 µg/mL (≈ 1.46 µM)
- MIC ([1]; C. difficile NR-49325): 0.5 µg/mL (≈ 2.92 µM)
- MIC ([1]; C. difficile NR-49326): 0.5 µg/mL (≈ 2.92 µM)
- MIC ([1]; C. difficile NR-49327): 0.5 µg/mL (≈ 2.92 µM)
- MIC ([1]; C. difficile NR-49328): 0.25 µg/mL (≈ 1.46 µM)
- MIC ([1]; C. difficile NR-49329): 0.25 µg/mL (≈ 1.46 µM)
- MIC50 ([1]; 101 C. difficile strains): 0.5 µg/mL (≈ 2.92 µM)
- MIC90 ([1]; 101 C. difficile strains, read-out: MIC90 (101 strains)): 1 µg/mL (≈ 5.84 µM)
- MIC ([2]; MRSA NRS70, Table 1): > 128 µg/mL
- MIC ([2]; MRSA NRS70, Table 7): > 128 µg/mL
- MIC ([2]; MRSA NRS119, Table 1): > 128 µg/mL
- MIC ([3]; Table 1): 2 µg/mL (≈ 11.7 µM)
- MIC ([3]; Table 7): 2 µg/mL (≈ 11.7 µM)
- MIC [4]: > 128 µg/mL
- MIC ([5]; Lactobacillus reuteri strain HM-102, Table 7): >32 µg/mL
- MIC ([5]; Limosilactobacillus reuteri, Lactobacillus reuter strain HM-102, Table 1, read-out: MIC): > 32 µg/mL

— US20230271950A1, “ANTIBACTERIAL PICOLINAMIDE COMPOUNDS” (University of Notre Dame Du Lac, priority 2020, published 2023)
